Reference: patent publication EP0090603A2, “Antibacterial compounds” (BEECHAM GROUP PLC, priority 1982, dated 1983)

Legend:
Strep. uberis SPU1 = assay: MIC against Veterinary Bacteria, in vitro agar dilution; conditions: […], 10^4 organisms, 18 hours at 37°C
Method: (§1) The activity of the compounds of the Examples against various veterinarily important bacteria, was assayed in vitro using two-fold serial dilutions in Diagnostic Sensitivity Test Agar inoculated with 10^4 organisms.

M. pneumoniae ATCC 15492 = assay: MIC against Mycoplasma, in vitro agar dilution; type: cell-based; conditions: Friis broth solidified with 0.9% agarose, 10^3 to 10^5 C.F.U., 6 days at 37°C
Strep. dysgalactiae SPD1 = assay: MIC against Veterinary Bacteria, in vitro agar dilution; conditions: […], 10^4 organisms, 18 hours at 37°C
Method: as §1

M. suipneumoniae MS 16 = assay: MIC against Mycoplasma, in vitro agar dilution; type: cell-based; conditions: Friis broth solidified with 0.9% agarose, 10^3 to 10^5 C.F.U., 6 days at 37°C
[1] = system: M. suipneumoniae ATCC 25095; assay: MIC against Mycoplasma, in vitro agar dilution; type: cell-based; conditions: Friis broth solidified with 0.9% agarose, 10^3 to 10^5 C.F.U., 6 days at 37°C
[2] = system: Erysipelothrix rhusiopathiae NCTC 8163; assay: MIC against Veterinary Bacteria, in vitro agar dilution; conditions: […], 10^4 organisms, 18 hours at 37°C
Method: as §1

Bord. bronchiseptica B08 = assay: as above; conditions: […], 10^4 organisms, 18 hours at 37°C
Method: as §1

M. bovis NCTC 10131 = assay: microbe, parasite or virus in culture; type: cell-based; conditions: Friis broth solidified with 0.9% agarose, 10^3 to 10^5 C.F.U., 6 days at 37°C
E. coli E1 = assay: MIC against Veterinary Bacteria, in vitro agar dilution; conditions: […], 10^4 organisms, 18 hours at 37°C
Method: as §1

[3] = system: Staph. aureus B4 (pen. resistant); assay: as above; conditions: […], 10^4 organisms, 18 hours at 37°C
Method: as §1

M. hyorhinis ATCC 25021 = assay: MIC against Mycoplasma, in vitro agar dilution; type: cell-based; conditions: Friis broth solidified with 0.9% agarose, 10^3 to 10^5 C.F.U., 6 days at 37°C
S. dublin S7 = assay: MIC against Veterinary Bacteria, in vitro agar dilution; conditions: […], 10^4 organisms, 18 hours at 37°C
Method: as §1

[4] = system: Strep. suis (group D) SPS11; assay: as above; conditions: […], 10^4 organisms, 18 hours at 37°C
Method: as §1

Past. multocida PA2 = assay: as above; conditions: […], 10^4 organisms, 18 hours at 37°C
Method: as §1

[5] = system: Staph. aureus 152 (pen. sens); assay: as above; conditions: […], 10^4 organisms, 18 hours at 37°C
Method: as §1

M. suipneumoniae Str. 11 = assay: MIC against Mycoplasma, in vitro agar dilution; type: cell-based; conditions: Friis broth solidified with 0.9% agarose, 10^3 to 10^5 C.F.U., 6 days at 37°C
Past. haemolytica PA5 = assay: MIC against Veterinary Bacteria, in vitro agar dilution; conditions: […], 10^4 organisms, 18 hours at 37°C
Method: as §1

M. suipneumoniae NB12 = assay: MIC against Mycoplasma, in vitro agar dilution; type: cell-based; conditions: Friis broth solidified with 0.9% agarose, 10^3 to 10^5 C.F.U., 6 days at 37°C
M. suipneumoniae TAM 6N = assay: MIC against Mycoplasma, in vitro agar dilution; type: cell-based; conditions: Friis broth solidified with 0.9% agarose, 10^3 to 10^5 C.F.U., 6 days at 37°C
[6] = system: M. suipneumoniae PW/C/210; assay: MIC against Mycoplasma, in vitro agar dilution; type: cell-based; conditions: Friis broth solidified with 0.9% agarose, 10^3 to 10^5 C.F.U., 6 days at 37°C
Staph. aureus Oxford = assay: MIC against Veterinary Bacteria, in vitro agar dilution; conditions: […], 10^4 organisms, 18 hours at 37°C
Method: as §1

[7] = system: M. suipneumoniae NCTC 10110; assay: MIC against Mycoplasma, in vitro agar dilution; type: cell-based; conditions: Friis broth solidified with 0.9% agarose, 10^3 to 10^5 C.F.U., 6 days at 37°C
S. typhimurium S18 = assay: MIC against Veterinary Bacteria, in vitro agar dilution; conditions: […], 10^4 organisms, 18 hours at 37°C
Method: as §1

E. coli NCTC 10418 = assay: as above; conditions: […], 10^4 organisms, 18 hours at 37°C
Method: as §1

M. suipneumoniae HK(2) = assay: MIC against Mycoplasma, in vitro agar dilution; type: cell-based; conditions: Friis broth solidified with 0.9% agarose, 10^3 to 10^5 C.F.U., 6 days at 37°C
M. suipneumoniae UCD 1 = assay: MIC against Mycoplasma, in vitro agar dilution; type: cell-based; conditions: Friis broth solidified with 0.9% agarose, 10^3 to 10^5 C.F.U., 6 days at 37°C
M. dispar NCTC 10125 = assay: MIC against Mycoplasma, in vitro agar dilution; type: cell-based; conditions: Friis broth solidified with 0.9% agarose, 10^3 to 10^5 C.F.U., 6 days at 37°C
M. suipneumoniae JF 435 = assay: MIC against Mycoplasma, in vitro agar dilution; type: cell-based; conditions: Friis broth solidified with 0.9% agarose, 10^3 to 10^5 C.F.U., 6 days at 37°C
M. gallisepticum S6 = assay: MIC against Mycoplasma, in vitro agar dilution; type: cell-based; conditions: Friis broth solidified with 0.9% agarose, 10^3 to 10^5 C.F.U., 6 days at 37°C
M. suipneumoniae LABER = assay: MIC against Mycoplasma, in vitro agar dilution; type: cell-based; conditions: Friis broth solidified with 0.9% agarose, 10^3 to 10^5 C.F.U., 6 days at 37°C
[8] = system: M. bovigenitalium ATCC 14173; assay: MIC against Mycoplasma, in vitro agar dilution; type: cell-based; conditions: Friis broth solidified with 0.9% agarose, 10^3 to 10^5 C.F.U., 6 days at 37°C
[9] = system: M. suipneumoniae J2206/183^b; assay: MIC against Mycoplasma, in vitro agar dilution; type: cell-based; conditions: Friis broth solidified with 0.9% agarose, 10^3 to 10^5 C.F.U., 6 days at 37°C
[10] = system: M. hyosynoviae ATCC 25591; assay: MIC against Mycoplasma, in vitro agar dilution; type: cell-based; conditions: Friis broth solidified with 0.9% agarose, 10^3 to 10^5 C.F.U., 6 days at 37°C
Bord. bronchiseptica B09 = assay: MIC against Veterinary Bacteria, in vitro agar dilution; conditions: […], 10^4 organisms, 18 hours at 37°C
Method: as §1

Past. multocida PA1 = assay: as above; conditions: […], 10^4 organisms, 18 hours at 37°C
Method: as §1

[11] = system: Corynebacterium pyogenes CY1; assay: as above; conditions: 10^4 organisms, 18 hours at 37°C
Method: as §1

M. hyorhinis ATCC 23234 = assay: MIC against Mycoplasma, in vitro agar dilution; type: cell-based; conditions: Friis broth solidified with 0.9% agarose, 10^3 to 10^5 C.F.U., 6 days at 37°C

## Methyl 9-[4-(5S-(2S,3S-epoxy-5S-hydroxy-4S-methylhexyl-3R,4R-dihydroxytetrahydropyran-2S-yl)-2,3-dimethylbut-2(E)-enoyloxy]nonanoate [Example 6]
Strep. uberis SPU1
  MIC's against Strep. uberis SPU1: 0.312 µg/mL
M. pneumoniae ATCC 15492
  MIC's against M. pneumoniae ATCC 15492: 10.0 µg/mL
Strep. dysgalactiae SPD1
  MIC's against Strep. dysgalactiae SPD1: 0.625 µg/mL
M. suipneumoniae MS 16
  MIC's against M. suipneumoniae MS 16: 2.5 µg/mL
[1]
  MIC's against M. suipneumoniae ATCC 25095: 2.5 µg/mL
[2]
  MIC's against Erysipelothrix rhusiopathiae NCTC 8163: >80 µg/mL
Bord. bronchiseptica B08
  MIC's against Bord. bronchiseptica B08: 40 µg/mL
M. bovis NCTC 10131
  MIC's against M. bovis NCTC 10131: 0.1 µg/mL
E. coli E1
  MIC's against E. coli E1: >80 µg/mL
[3]
  MIC's against Staph. aureus B4 (pen. resistant): 1.25 µg/mL
M. hyorhinis ATCC 25021
  MIC's against M. hyorhinis ATCC 25021: 1.0 µg/mL
S. dublin S7
  MIC's against S. dublin S7: >80 µg/mL
[4]
  MIC's against Strep. suis (group D) SPS11: 10 µg/mL
Past. multocida PA2
  MIC's against Past. multocida PA2: 5.0 µg/mL
[5]
  MIC's against Staph. aureus 152 (pen. sens): 2.5 µg/mL
M. suipneumoniae Str. 11
  MIC's against M. suipneumoniae Str. 11: 2.5 µg/mL
Past. haemolytica PA5
  MIC's against Past. haemolytica PA5: 80 µg/mL
M. suipneumoniae NB12
  MIC's against M. suipneumoniae NB12: 2.5 µg/mL
M. suipneumoniae TAM 6N
  MIC's against M. suipneumoniae TAM 6N: 10.0 µg/mL
[6]
  MIC's against M. suipneumoniae PW/C/210: 2.5 µg/mL
Staph. aureus Oxford
  MIC's against Staph. aureus Oxford: 0.625 µg/mL
[7]
  MIC's against M. suipneumoniae NCTC 10110: 10.0 µg/mL
S. typhimurium S18
  MIC's against S. typhimurium S18: >80 µg/mL
E. coli NCTC 10418
  MIC's against E. coli NCTC 10418: >80 µg/mL
M. suipneumoniae HK(2)
  MIC's against M. suipneumoniae HK(2): 10.0 µg/mL
M. suipneumoniae UCD 1
  MIC's against M. suipneumoniae UCD 1: 10.0 µg/mL
M. dispar NCTC 10125
  MIC's against M. dispar NCTC 10125: 2.5 µg/mL
M. suipneumoniae JF 435
  MIC's against M. suipneumoniae JF 435: 5.0 µg/mL
M. gallisepticum S6
  MIC's against M. gallisepticum S6: >10.0 µg/mL
M. suipneumoniae LABER
  MIC's against M. suipneumoniae LABER: 2.5 µg/mL
[8]
  MIC's against M. bovigenitalium ATCC 14173: 0.25 µg/mL
[9]
  MIC's against M. suipneumoniae J2206/183^b: 10.0 µg/mL
[10]
  MIC's against M. hyosynoviae ATCC 25591: 1.0 µg/mL
Bord. bronchiseptica B09
  MIC's against Bord. bronchiseptica B09: 5.0 µg/mL
Past. multocida PA1
  MIC's against Past. multocida PA1: 5.0 µg/mL
[11]
  MIC's against Corynebacterium pyogenes CY1: >80 µg/mL
M. hyorhinis ATCC 23234
  MIC's against M. hyorhinis ATCC 23234: 1.0 µg/mL
